Test results as given in patent publication USRE48461E1, “Modulation of androgen receptor expression” (Ionis Pharmaceuticals, Inc., priority 2012, dated 2021).

Tests used:
Type in all cases: cell-based, human
TMPRSS2 mRNA [1] = experiment: TMPRSS2 expression in 22RV1 cells; settings: RNAiMax, 48 hrs
Protocol: Cells were plated at 1,000 cells per well. […] After an incubation period of 48 hrs, RNA levels of full length AR, the V7 variant, PSA and TMPRSS2 were measured.
After an incubation period of 48 hrs, RNA levels of full length AR, the V7 variant, PSA and TMPRSS2 were measured.
Cells were plated at 2,000 cells per well and cultured in CSS media for 16 hours. […] After 4 hrs, 1 nM DHT was added. […] After an incubation period of 48 hrs, RNA levels of AR, AR V7 variant, PSA and TMPRSS2 were measured.

TMPRSS2 mRNA [2] = experiment: TMPRSS2 expression in C4-2 cells; settings: 48 hrs; for Percent inhibition of TMPRSS2 expression: C4-2 cells, CSS + DHT medium
Protocol: Cells were plated at 1,000 cells per well. […] After an incubation period of 48 hrs, RNA levels of AR, PSA and TMPRSS2 were measured.
Cells were plated at 2,000 cells per well and cultured in CSS media with 1 nM DHT. […] After an incubation period of 48 hrs, RNA levels of AR, PSA and TMPRSS2 were measured.

PSA mRNA = experiment: PSA expression in C4-2B cells (Example 30); settings: 48 hrs
Protocol: Cells were plated at 1,000 cells per well. […] ISIS 549148 was included as a negative control. […] After an incubation period of 48 hrs, RNA levels of AR, PSA and TMPRSS2 were measured.
Cells were plated at 2,000 cells per well and cultured in CSS media with 1 nM DHT. […] ISIS 549148 was included as a negative control. […] After an incubation period of 48 hrs, RNA levels of AR, PSA and TMPRSS2 were measured. In the absence of DHT, AR expression in C4-2 cells was 188%, PSA expression was 43% and TMPRSS2 expression was 27% compared to the untreated control.

TMPRSS2 mRNA [3] = experiment: TMPRSS2 expression in LNCaP cells (complete, CSS+DHT medium); settings: for Percent inhibition of TMPRSS2 expression in LNCaP cells cultured in CSS + DHT medium: CSS + DHT (1 nM) medium, 48 hrs; for Percent inhibition of TMPRSS2 expression in LNCaP cells cultured in complete medium: 48 hours
Protocol: Cells were plated at 1,000 cells per well. […] ISIS 549148 was included as a negative control. […] After an incubation period of 48 hours, RNA levels of AR, PSA and TMPRSS2 were measured.
Cells were plated at 2,000 cells per well and cultured in phenol red-free RPMI supplemented with 5% charcoal stripped serum (Gibco) media for 16 hours. […] ISIS 549148 was included as a negative control. […] After an incubation period of 4 hrs, DHT was added to the medium to a final concentration of 1 nM as indicated. RNAs were collected 48 hrs later and levels of AR, PSA and TMPRSS2 were measured. In the absence of DHT, AR expression in LNCaP cells was 95%, PSA expression was 7% and TMPRSS2 expression was 24% compared to the untreated control.

22RV1 cells [4] = experiment: 22RV1 cell proliferation with/without DHT (MTT); settings: 5 days; for Percent inhibition of 22RV1 cell proliferation: RNAiMAX
Protocol: 22RV1cells were plated at 1,500 cells per well. […] Separate sets of cells, also treated with each of the antisense oligonucleotides, were treated with DHT added on day 1 at a final concentration of 1 nM. After a treatment period of 5 days, the proliferative ability of the cancer cells was measured using the standard MTT assay. Results are presented in Table 69 as percent inhibition of proliferation, relative to non-treated cells.

22RV1 cells [5] = experiment: 22RV1 cell proliferation, ASO in combination with MDV3100 (Example 22); settings: for Proliferation (% untreated control) in 22RV1 without MDV-3100: RNAiMAX, 3 days
Protocol: 22RV1 cells were plated at 2,000 cells per well in 5% CSS medium for 48 hours. […] ISIS 549148 was included as a negative control. […] After a treatment period of 3 days, the proliferative capacity of the cancer cells was measured with CellTiter 96® AQueous One Solution Cell Proliferation kit (Promega), following the manufacturer's instructions. Results are presented in Tables 58-62 as percent inhibition of proliferation, relative to non-treated cells.

TTGATTTAATGGTTGC [ISIS 560131] (MOE and (S)-cEt gapmer chemistry, further chemistry not given here) [targets intron 1]
Percent inhibition of TMPRSS2 expression (TMPRSS2 mRNA [1]; CSS + DHT medium, 1.34 nM): 39% | Percent inhibition of TMPRSS2 expression (TMPRSS2 mRNA [1]; CSS + DHT medium, 4.0 nM): 50% | Percent inhibition of TMPRSS2 expression (TMPRSS2 mRNA [1]; CSS + DHT medium, 13.4 nM): 59% | Percent inhibition of TMPRSS2 expression (TMPRSS2 mRNA [1]; complete medium, 1.34 nM): 7% | Percent inhibition of TMPRSS2 expression (TMPRSS2 mRNA [1]; complete medium, 4.0 nM): 3% | Percent inhibition of TMPRSS2 expression (TMPRSS2 mRNA [1]; complete medium, 13.4 nM): 19% | Percent inhibition of TMPRSS2 expression (TMPRSS2 mRNA [1]; complete medium, 40 nM): 32% | Percent inhibition of TMPRSS2 expression (TMPRSS2 mRNA [2]; 0.04 μM): 10% | Percent inhibition of TMPRSS2 expression (TMPRSS2 mRNA [2]; 0.2 μM): 17% | Percent inhibition of TMPRSS2 expression (TMPRSS2 mRNA [2]; 1 μM): 51% | Percent inhibition of TMPRSS2 expression (TMPRSS2 mRNA [2]; 5.0 μM): 78% | Percent inhibition of TMPRSS2 expression in C4-2 cells cultured in complete medium (TMPRSS2 mRNA [2]; 0.04 μM): 29% | Percent inhibition of TMPRSS2 expression in C4-2 cells cultured in complete medium (TMPRSS2 mRNA [2]; 0.2 μM): 62% | Percent inhibition of TMPRSS2 expression in C4-2 cells cultured in complete medium (TMPRSS2 mRNA [2]; 1 μM): 76% | Percent inhibition of TMPRSS2 expression in C4-2 cells cultured in complete medium (TMPRSS2 mRNA [2]; 5.0 μM): 71% | Percent inhibition of PSA expression (PSA mRNA; CSS + DHT medium, 0.04 μM): 0% | Percent inhibition of PSA expression (PSA mRNA; CSS + DHT medium, 0.2 μM): 17% | Percent inhibition of PSA expression (PSA mRNA; CSS + DHT medium, 1 μM): 50% | Percent inhibition of PSA expression (PSA mRNA; CSS + DHT medium, 5.0 μM): 61% | Percent inhibition of PSA expression (PSA mRNA; complete medium, 0.04 μM): 56% | Percent inhibition of PSA expression (PSA mRNA; complete medium, 0.2 μM): 84% | Percent inhibition of PSA expression (PSA mRNA; complete medium, 1 μM): 89% | Percent inhibition of PSA expression (PSA mRNA; complete medium, 5.0 μM): 92% | Percent inhibition of TMPRSS2 expression in LNCaP cells cultured in CSS + DHT medium (TMPRSS2 mRNA [3]; 0.04 μM): 6% | Percent inhibition of TMPRSS2 expression in LNCaP cells cultured in CSS + DHT medium (TMPRSS2 mRNA [3]; 0.2 μM): 11% | Percent inhibition of TMPRSS2 expression in LNCaP cells cultured in CSS + DHT medium (TMPRSS2 mRNA [3]; 1 μM): 26% | Percent inhibition of TMPRSS2 expression in LNCaP cells cultured in CSS + DHT medium (TMPRSS2 mRNA [3]; 5.0 μM): 64% | Percent inhibition of TMPRSS2 expression in LNCaP cells cultured in complete medium (TMPRSS2 mRNA [3]; 0.04 μM): 0% | Percent inhibition of TMPRSS2 expression in LNCaP cells cultured in complete medium (TMPRSS2 mRNA [3]; 0.2 μM): 25% | Percent inhibition of TMPRSS2 expression in LNCaP cells cultured in complete medium (TMPRSS2 mRNA [3]; 1 μM): 50% | Percent inhibition of TMPRSS2 expression in LNCaP cells cultured in complete medium (TMPRSS2 mRNA [3]; 5.0 μM): 51% | Percent inhibition of 22RV1 cell proliferation (22RV1 cells [4]; +DHT (1 nM), ASO 1.34 nM): 0% | Percent inhibition of 22RV1 cell proliferation (22RV1 cells [4]; +DHT (1 nM), ASO 4.0 nM): 1% | Percent inhibition of 22RV1 cell proliferation (22RV1 cells [4]; +DHT (1 nM), ASO 13.4 nM): 13% | Percent inhibition of 22RV1 cell proliferation (22RV1 cells [4]; +DHT (1 nM), ASO 40.0 nM): 34% | 22RV1 cell proliferation (22RV1 cells [4]; with or without 1 nM DHT): significantly inhibited prostate cancer cell proliferation even in the presence of AR activator, DHT, compared to the control | Percent inhibition of 22RV1 cell proliferation (22RV1 cells [4]; −DHT, ASO 1.34 nM): 0% | Percent inhibition of 22RV1 cell proliferation (22RV1 cells [4]; −DHT, ASO 4.0 nM): 2% | Percent inhibition of 22RV1 cell proliferation (22RV1 cells [4]; −DHT, ASO 13.4 nM): 29% | Percent inhibition of 22RV1 cell proliferation (22RV1 cells [4]; −DHT, ASO 40.0 nM): 54% | synergy with MDV3100 (22RV1 cells [5]; 22RV1 cells): synergistic with MDV3100 | cell proliferation inhibited, combination (22RV1 cells [5]; 22RV1 cells, 1.34 nM ASO in combination with 1.0 μM MDV3100): 23% | inhibited cell proliferation, ASO alone (22RV1 cells [5]; 22RV1 cells, ASO alone at 1.34 nM): 3% | Proliferation (% untreated control) in 22RV1 cells with 0.04 μM MDV-3100 (22RV1 cells [5]; ASO dose 0.4 nM + 0.04 μM MDV-3100): 96 % untreated control | Proliferation (% untreated control) in 22RV1 cells with 0.2 μM MDV-3100 (22RV1 cells [5]; ASO dose 0.4 nM + 0.2 μM MDV-3100): 95 % untreated control | Proliferation (% untreated control) in 22RV1 cells with 1.0 μM MDV-3100 (22RV1 cells [5]; ASO dose 0.4 nM + 1.0 μM MDV-3100): 96 % untreated control | Proliferation (% untreated control) in 22RV1 cells with 5.0 μM MDV-3100 (22RV1 cells [5]; ASO dose 0.4 nM + 5.0 μM MDV-3100): 91 % untreated control | Proliferation (% untreated control) in 22RV1 without MDV-3100 (22RV1 cells [5]; ASO dose 0.4 nM): 103 % untreated control | Proliferation (% untreated control) in 22RV1 cells with 0.04 μM MDV-3100 (22RV1 cells [5]; ASO dose 1.34 nM + 0.04 μM MDV-3100): 80 % untreated control | Proliferation (% untreated control) in 22RV1 cells with 0.2 μM MDV-3100 (22RV1 cells [5]; ASO dose 1.34 nM + 0.2 μM MDV-3100): 90 % untreated control | Proliferation (% untreated control) in 22RV1 cells with 1.0 μM MDV-3100 (22RV1 cells [5]; ASO dose 1.34 nM + 1.0 μM MDV-3100): 77 % untreated control | Proliferation (% untreated control) in 22RV1 cells with 5.0 μM MDV-3100 (22RV1 cells [5]; ASO dose 1.34 nM + 5.0 μM MDV-3100): 76 % untreated control | Proliferation (% untreated control) in 22RV1 without MDV-3100 (22RV1 cells [5]; ASO dose 1.34 nM): 97 % untreated control | Proliferation (% untreated control) in 22RV1 cells with 0.04 μM MDV-3100 (22RV1 cells [5]; ASO dose 4.0 nM + 0.04 μM MDV-3100): 65 % untreated control | Proliferation (% untreated control) in 22RV1 cells with 0.2 μM MDV-3100 (22RV1 cells [5]; ASO dose 4.0 nM + 0.2 μM MDV-3100): 76 % untreated control | Proliferation (% untreated control) in 22RV1 cells with 1.0 μM MDV-3100 (22RV1 cells [5]; ASO dose 4.0 nM + 1.0 μM MDV-3100): 63 % untreated control | Proliferation (% untreated control) in 22RV1 cells with 5.0 μM MDV-3100 (22RV1 cells [5]; ASO dose 4.0 nM + 5.0 μM MDV-3100): 63 % untreated control | Proliferation (% untreated control) in 22RV1 without MDV-3100 (22RV1 cells [5]; ASO dose 4.0 nM): 77 % untreated control | Proliferation (% untreated control) in 22RV1 cells with 0.04 μM MDV-3100 (22RV1 cells [5]; ASO dose 13.4 nM + 0.04 μM MDV-3100): 39 % untreated control | Proliferation (% untreated control) in 22RV1 cells with 0.2 μM MDV-3100 (22RV1 cells [5]; ASO dose 13.4 nM + 0.2 μM MDV-3100): 51 % untreated control | Proliferation (% untreated control) in 22RV1 cells with 1.0 μM MDV-3100 (22RV1 cells [5]; ASO dose 13.4 nM + 1.0 μM MDV-3100): 40 % untreated control | Proliferation (% untreated control) in 22RV1 cells with 5.0 μM MDV-3100 (22RV1 cells [5]; ASO dose 13.4 nM + 5.0 μM MDV-3100): 41 % untreated control | Proliferation (% untreated control) in 22RV1 without MDV-3100 (22RV1 cells [5]; ASO dose 13.4 nM): 57 % untreated control
